Results taken from US20260034079A1, “PHARMACEUTICAL COMPOSITION CONTAINING HYDROXYUREA FOR USE IN THE TREATMENT OF SEVERE CHRONIC ANEMIA” (THERAVIA, priority 2019, published 2026).

System: sickle cell patients with severe chronic anaemia
Experiment: Clinical trial: hematological parameters during treatment with Siklos in HU-naive sickle cell patients with severe chronic anaemia
Type: in vivo, human
Experimental: This study was conducted with a pharmaceutical composition identical to that of Siklos.
The dose of hydroxycarbamide is comprised from 5 to 30 mg/kg/day.
The results of the evaluation of the hematological parameters of the patients are recorded in the table below.

[1] = 12 months after the start of the treatment, p<0.001

Structure (SMILES): NC(=O)NO [hydroxycarbamide, hydroxyurea]
- Haemoglobin, value after initiation of the treatment (12 months after initiation of Siklos (between 10 and 14 months), 41 patients, base value 7.16 ± 1.06, 5 to 30 mg/kg/day): 7.89 ± 1.11 g/dL
- Variation of the haemoglobin, change with respect to the base value (12 months after initiation of Siklos (between 10 and 14 months), 41 patients, p 0.001): 0.73 ± 1.30 g/dL
- Mean blood volume, change [1]: +10.82±11.42
- Number of reticulocytes, change [1]: −91.5±115.6
- Absolute number of neutrophil (after the start of the treatment, indicating adequate compliance): decreased
- Evolution of the fetal haemoglobin, change with respect to the base value (at least 6 months after initiation of Siklos (between 5 and 14 months), 23 patients, p <0.001): 6.37±6.38%
- Variation of the haemoglobin, change with respect to the base value (at least 6 months after initiation of Siklos (between 5 and 14 months), 55 patients, p <0.001): 0.65 ± 1.24 g/dL
